PMC5342526, “Identification of Bisindolylmaleimide IX as a potential agent to treat drug-resistant BCR-ABL positive leukemia” (Oncotarget, 2016)
Like-named read-outs stand apart in the source and are kept apart here.

Columns and labels:
[1] = system: MEFs and HCT116 cells; experiment: Activation of Atm and Chk2 (DNA damage response), western blot; format: cell-based; details: 4 hrs, phosphorylation of Atm and Chk2
[2] = system: HCT116 cells; experiment: Cell cycle analysis by FACS; format: cell-based, human; details: HCT116, 24 hrs
Procedure: Cells were seeded on 35-mm dishes and cultured for 24 hrs, reaching 60–70% confluency. The cells were treated with different concentrations of Bisindolylmaleimide IX for 24 or 48 hrs, harvested by trypsinization, resuspended in 200 μl PBS, and fixed in 100% ethanol overnight at 4°C. The fixed cells were pelleted by centrifugation, resuspended in 800 μl PBS containing ribonuclease A (100 μg/ml) and incubated for 30 min at 37°C. Then 10 μl propidium iodide (PI, 4 mg/ml PBS) were added to the samples, which were assessed on a FACSCalibur flow cytometer using Cell Quest software (BD Bioscience).

[3] = system: B-Raf in BCR-ABL positive BaF3 cells; experiment: B-Raf phosphorylation, western blot; format: cell-based, murine
Procedure: Activation and expression of Erk, Mek1, and Raf were determined by western blot. B. Inhibition of Erk decreased the cell survival rates in BaF3 cells expressing BCR-ABL compared to control cells. […] C. […] N=3. Right panel: Western blot results showing that B-Raf was knocked down in these cells.

[4] = molecular target: T1, IKKβ (Homo sapiens, UniProt O14920); experiment: Z'-LYTE in vitro kinase assay; format: biochemical; details: mean ±SEM
T1 construct: made in house; host or cells: Escherichia coli BL21-Codon Plus (DE3)
T1 sequence (O14920 whole entry, species assumed): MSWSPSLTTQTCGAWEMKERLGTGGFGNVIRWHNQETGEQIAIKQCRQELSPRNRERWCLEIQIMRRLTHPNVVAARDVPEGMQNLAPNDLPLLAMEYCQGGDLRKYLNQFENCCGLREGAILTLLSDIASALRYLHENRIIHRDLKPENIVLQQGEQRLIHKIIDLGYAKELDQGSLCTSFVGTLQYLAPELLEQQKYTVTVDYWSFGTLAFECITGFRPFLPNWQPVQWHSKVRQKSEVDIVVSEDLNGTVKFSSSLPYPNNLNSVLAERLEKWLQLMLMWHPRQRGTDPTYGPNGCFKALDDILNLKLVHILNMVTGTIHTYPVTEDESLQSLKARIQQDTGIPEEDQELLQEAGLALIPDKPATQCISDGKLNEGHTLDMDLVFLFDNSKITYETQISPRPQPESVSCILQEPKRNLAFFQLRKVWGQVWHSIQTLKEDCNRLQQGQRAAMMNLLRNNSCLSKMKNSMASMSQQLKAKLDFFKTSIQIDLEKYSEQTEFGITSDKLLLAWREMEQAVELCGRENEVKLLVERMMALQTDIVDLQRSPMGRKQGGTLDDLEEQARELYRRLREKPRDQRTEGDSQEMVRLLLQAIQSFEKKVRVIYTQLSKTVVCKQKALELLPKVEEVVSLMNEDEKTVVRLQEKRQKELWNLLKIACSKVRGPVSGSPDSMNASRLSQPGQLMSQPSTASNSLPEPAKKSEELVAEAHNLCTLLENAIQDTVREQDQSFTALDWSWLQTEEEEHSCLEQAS
Procedure: (§1) The recombinant Auror, B-Raf, IKKβ, SYK, BCR-Abl, MEK1 and Erk1 proteins were expressed in Escherichia coli strain BL21-Codon Plus (DE3), purified by Ni-NTA Agarose (QIAGEN). The kinase assays were carried out with the Z'-LYTETM Kinase Assay kit using Ser/Thr3 Peptide substrate (Invitrogen). The reactions were carried out according to the Z-LYTE protocol and the results were read on an EnVision plate reader. All reactions were carried out in triplicate. Data were expressed as mean ±SEM.

[5] = molecular target: BCR-ABL (Homo sapiens, UniProt P00519); experiment: Z'-LYTE in vitro kinase assay; format: biochemical
Chain of BCR-ABL (P00519 27-1130): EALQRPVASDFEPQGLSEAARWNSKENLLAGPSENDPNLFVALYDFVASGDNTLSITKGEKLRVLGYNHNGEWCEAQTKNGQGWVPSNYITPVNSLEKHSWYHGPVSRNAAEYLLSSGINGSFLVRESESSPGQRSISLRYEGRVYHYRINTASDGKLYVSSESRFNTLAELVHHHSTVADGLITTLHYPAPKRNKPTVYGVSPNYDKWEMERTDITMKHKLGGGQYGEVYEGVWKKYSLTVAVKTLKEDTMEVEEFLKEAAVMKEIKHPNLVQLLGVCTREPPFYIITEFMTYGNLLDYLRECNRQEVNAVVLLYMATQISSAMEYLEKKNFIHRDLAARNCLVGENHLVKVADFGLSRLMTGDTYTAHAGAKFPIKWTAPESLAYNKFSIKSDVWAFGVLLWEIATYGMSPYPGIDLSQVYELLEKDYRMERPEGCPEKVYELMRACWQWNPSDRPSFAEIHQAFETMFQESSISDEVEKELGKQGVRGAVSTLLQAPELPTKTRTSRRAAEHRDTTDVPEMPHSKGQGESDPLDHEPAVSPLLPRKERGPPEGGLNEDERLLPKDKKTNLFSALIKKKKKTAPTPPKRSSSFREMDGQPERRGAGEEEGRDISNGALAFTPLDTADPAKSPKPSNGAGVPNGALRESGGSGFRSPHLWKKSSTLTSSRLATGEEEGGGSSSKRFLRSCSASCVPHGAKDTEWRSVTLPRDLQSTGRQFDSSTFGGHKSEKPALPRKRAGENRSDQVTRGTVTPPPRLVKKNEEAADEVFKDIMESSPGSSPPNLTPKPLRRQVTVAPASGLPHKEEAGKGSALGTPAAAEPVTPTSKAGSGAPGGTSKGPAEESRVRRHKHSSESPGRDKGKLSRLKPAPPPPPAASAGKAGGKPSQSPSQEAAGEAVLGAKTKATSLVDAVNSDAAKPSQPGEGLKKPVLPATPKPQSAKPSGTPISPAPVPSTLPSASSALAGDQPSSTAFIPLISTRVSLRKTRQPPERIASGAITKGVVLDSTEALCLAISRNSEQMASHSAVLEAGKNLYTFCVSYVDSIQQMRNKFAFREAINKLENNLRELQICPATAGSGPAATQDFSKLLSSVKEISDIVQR
Chain of BCR-ABL (P11274 1-927 partner): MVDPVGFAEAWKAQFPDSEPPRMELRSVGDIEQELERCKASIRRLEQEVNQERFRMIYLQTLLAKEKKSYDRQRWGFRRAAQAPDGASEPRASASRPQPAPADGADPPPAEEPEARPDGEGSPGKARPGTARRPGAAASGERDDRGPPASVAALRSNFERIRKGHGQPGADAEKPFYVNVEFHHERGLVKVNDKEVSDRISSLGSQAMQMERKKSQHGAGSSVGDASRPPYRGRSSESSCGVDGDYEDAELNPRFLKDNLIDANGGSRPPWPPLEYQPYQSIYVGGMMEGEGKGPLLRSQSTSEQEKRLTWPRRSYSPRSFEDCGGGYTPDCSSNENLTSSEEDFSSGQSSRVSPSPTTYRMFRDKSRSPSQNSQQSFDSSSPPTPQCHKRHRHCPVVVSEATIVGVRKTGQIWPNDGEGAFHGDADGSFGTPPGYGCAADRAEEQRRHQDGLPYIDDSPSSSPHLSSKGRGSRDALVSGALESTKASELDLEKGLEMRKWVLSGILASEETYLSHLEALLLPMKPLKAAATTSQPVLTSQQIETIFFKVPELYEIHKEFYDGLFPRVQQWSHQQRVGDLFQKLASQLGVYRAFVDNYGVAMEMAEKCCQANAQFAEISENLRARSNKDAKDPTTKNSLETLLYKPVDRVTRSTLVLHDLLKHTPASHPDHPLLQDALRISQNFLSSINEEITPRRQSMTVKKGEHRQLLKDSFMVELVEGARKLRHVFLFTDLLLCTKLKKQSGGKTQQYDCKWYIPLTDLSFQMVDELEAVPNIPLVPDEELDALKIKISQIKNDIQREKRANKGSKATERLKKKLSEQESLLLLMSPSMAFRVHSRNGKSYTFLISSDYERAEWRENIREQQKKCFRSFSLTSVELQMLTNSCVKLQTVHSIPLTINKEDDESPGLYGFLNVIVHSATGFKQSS
Procedure: as §1

[6] = molecular target: T2, Aurora A (Homo sapiens, UniProt O14965); experiment: Z'-LYTE in vitro kinase assay; format: biochemical; details: mean ±SEM
T2 construct: made in house; host or cells: Escherichia coli BL21-Codon Plus (DE3)
T2 sequence (O14965 whole entry): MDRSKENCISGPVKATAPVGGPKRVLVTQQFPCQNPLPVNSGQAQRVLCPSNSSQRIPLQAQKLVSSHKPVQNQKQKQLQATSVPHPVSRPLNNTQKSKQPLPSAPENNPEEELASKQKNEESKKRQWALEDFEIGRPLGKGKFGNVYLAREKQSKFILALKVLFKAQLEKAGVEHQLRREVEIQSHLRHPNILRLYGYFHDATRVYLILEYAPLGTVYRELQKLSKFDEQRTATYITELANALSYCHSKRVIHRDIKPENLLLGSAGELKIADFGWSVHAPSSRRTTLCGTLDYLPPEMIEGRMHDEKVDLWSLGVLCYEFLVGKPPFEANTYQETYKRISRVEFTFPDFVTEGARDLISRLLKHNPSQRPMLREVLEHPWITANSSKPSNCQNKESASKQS
Procedure: as §1

[7] = molecular target: T3, SYK (Homo sapiens, UniProt P43405); experiment: Z'-LYTE in vitro kinase assay; format: biochemical
T3 construct: made in house; host or cells: Escherichia coli BL21-Codon Plus (DE3)
Procedure: as §1

[8] = molecular target: T4, ERK1 (Homo sapiens, UniProt P27361); experiment: Z'-LYTE in vitro kinase assay; format: biochemical
T4 construct: made in house; host or cells: Escherichia coli BL21-Codon Plus (DE3)
T4 sequence (P27361 whole entry, species assumed): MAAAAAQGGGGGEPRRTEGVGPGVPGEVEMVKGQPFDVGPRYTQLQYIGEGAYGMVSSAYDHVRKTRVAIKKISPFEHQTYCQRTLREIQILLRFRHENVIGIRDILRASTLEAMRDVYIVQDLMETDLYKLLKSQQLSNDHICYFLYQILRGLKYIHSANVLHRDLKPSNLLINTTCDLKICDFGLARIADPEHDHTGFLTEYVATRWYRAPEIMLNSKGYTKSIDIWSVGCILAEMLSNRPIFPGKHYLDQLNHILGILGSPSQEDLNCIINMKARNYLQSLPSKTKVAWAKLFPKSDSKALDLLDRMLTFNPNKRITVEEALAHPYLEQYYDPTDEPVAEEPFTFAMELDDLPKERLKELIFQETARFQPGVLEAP
Procedure: as §1

[9] = molecular target: T5, MEK1 (Homo sapiens, UniProt Q02750); experiment: Z'-LYTE in vitro kinase assay; format: biochemical
T5 construct: made in house; host or cells: Escherichia coli BL21-Codon Plus (DE3)
T5 sequence (Q02750 whole entry, species assumed): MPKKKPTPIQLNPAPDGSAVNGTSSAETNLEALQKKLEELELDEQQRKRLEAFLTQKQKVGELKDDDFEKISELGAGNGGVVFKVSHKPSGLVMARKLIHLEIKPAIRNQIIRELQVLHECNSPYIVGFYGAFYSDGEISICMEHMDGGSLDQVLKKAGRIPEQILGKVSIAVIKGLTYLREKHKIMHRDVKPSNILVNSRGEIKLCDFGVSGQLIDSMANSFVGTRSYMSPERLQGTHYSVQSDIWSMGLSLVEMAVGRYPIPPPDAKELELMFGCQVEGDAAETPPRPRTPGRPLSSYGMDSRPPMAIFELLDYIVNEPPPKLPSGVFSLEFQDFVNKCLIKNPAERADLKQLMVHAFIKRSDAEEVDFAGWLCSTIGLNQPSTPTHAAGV
Procedure: as §1

[10] = molecular target: T6, B-Raf (Homo sapiens, UniProt P15056); experiment: Z'-LYTE in vitro kinase assay; format: biochemical; details: mean ±SEM
T6 construct: made in house; host or cells: Escherichia coli BL21-Codon Plus (DE3)
T6 sequence (P15056 whole entry, species assumed): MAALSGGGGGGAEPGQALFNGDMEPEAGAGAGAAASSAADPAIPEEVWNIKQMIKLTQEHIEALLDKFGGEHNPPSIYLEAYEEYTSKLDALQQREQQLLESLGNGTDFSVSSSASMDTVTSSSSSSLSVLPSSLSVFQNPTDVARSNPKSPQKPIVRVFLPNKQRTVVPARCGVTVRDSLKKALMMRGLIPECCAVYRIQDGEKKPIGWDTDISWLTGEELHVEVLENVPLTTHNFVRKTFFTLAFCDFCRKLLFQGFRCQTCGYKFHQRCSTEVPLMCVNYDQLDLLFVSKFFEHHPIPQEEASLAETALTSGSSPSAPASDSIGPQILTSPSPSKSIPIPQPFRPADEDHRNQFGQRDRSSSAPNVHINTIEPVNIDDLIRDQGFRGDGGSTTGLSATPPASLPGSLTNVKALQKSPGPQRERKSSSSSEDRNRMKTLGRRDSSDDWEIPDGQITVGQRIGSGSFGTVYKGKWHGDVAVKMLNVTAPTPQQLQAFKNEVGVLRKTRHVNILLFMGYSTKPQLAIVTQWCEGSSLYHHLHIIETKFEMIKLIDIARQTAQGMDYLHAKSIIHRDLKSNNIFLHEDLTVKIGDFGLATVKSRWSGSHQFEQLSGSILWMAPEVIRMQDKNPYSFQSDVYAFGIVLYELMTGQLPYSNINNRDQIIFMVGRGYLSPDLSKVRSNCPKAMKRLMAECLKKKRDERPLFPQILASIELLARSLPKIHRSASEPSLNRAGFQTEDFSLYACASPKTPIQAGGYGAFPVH
Procedure: as §1

[11] = system: p53 in HCT116 cells; experiment: p53 protein level by western blot; format: cell-based, human; details: HCT116, 2.5 μM, time-dependent
[12] = system: K562 cells; experiment: Wst-1 cell survival assay; details: for IC50: Homo sapiens, read-out: IC50, cell survival
Procedure: We then evaluated the cytotoxic effect of Bisindolylmaleimide IX in MEFs and HCT116 cells. Different doses of Bisindolylmaleimide IX were applied to the cell cultures and cell survival rates and IC50 were determined with Wst-1 assay.
To measure cell survival rates after Bisindolylmaleimide IX treatment, cells were plated at 1×10^4 in 96 well plates and cultured for overnight, which were then treated with Bisindolylmaleimide IX for 48 hrs. Cell proliferation reagent WST-1 (Roche) was added to each well and was further incubated for 4 hrs at 37°C. The absorbance was measured against a control using microplate reader at 440 nm. The reference wavelength was 630 nm.

[13] = system: DNA topoisomerase; experiment: in vitro DNA relaxation reaction with BaF3 cell lysates; format: biochemical, murine; details: 0, 2, 4 or 8 μM, pBluescript
Procedure: Figure 1 Identification of Bisindolylmaleimide IX as a genotoxic agent and a topoisomerase inhibitor A. The structures of Bisindolylmaleimide IX. B. Bisindolylmaleimide IX induced p53 expression in MEFs and HCT116 cells. Upper panel: primary MEFs were treated with 2.5 μM Bisindolylmaleimide IX for different periods of time and the cells were collected. The levels of p53 were determined by western blot. Bottom panel: HCT116 cells were treated with 2.5 μM Bisindolylmaleimide IX for different periods of time and the cells were collected. The levels of p53 were determined by western blot. C. Bisindolylmaleimide IX induced formation of DNA damage foci for γH2AX and p-Atm in MEFs. Primary MEFs were pretreated with caffeine or solvent for 2 hrs and then with 2.5 μM of Bisindolylmaleimide IX, Bisindolylmaleimide I, or Enzastaurin for 4 more hrs. γH2AX and p-Atm were detected with immunofluorescent staining using specific antibodies. D. Bisindolylmaleimide IX inhibited the topoisomerase activity assayed with pBluescript. DNA samples of pBluescript were incubated with cell lysates of MEFs, which were treated with 0, 4 or 8 μM Bisindolylmaleimide IX before being harvested. DNA samples were analyzed on agarose gels. […] DNA samples of pBluescript were incubated with cell lysates of BaF3 in the presence of 0, 2, 4 or 8 μM Bisindolylmaleimide IX. DNA samples were analyzed on agarose gels. […]

[14] = system: BCR-ABL BaF3 cells; experiment: cells; details: Mus musculus, BaF3, 24 h, read-out: IC50, cell survival

SMILES: CS(=O)(=O)O.Cn1cc(C2=C(c3cn(CCCSC(=N)N)c4ccccc34)C(=O)NC2=O)c2ccccc21 [Bisindolylmaleimide IX, 3-[1-[3-(Amidinothio)propyl]-3-indolyl]-4-(1-methyl-3-indolyl)-1H-pyrrole-2,5-dione methanesulfonate]
- lowest concentration able to activate the DNA damage response [1]: 1.0 µM
- cell cycle profile [2]: increase in G2/M phase cells and a decrease in S phase cells
- phosphorylation of B-Raf [3]: inhibited phosphorylation of B-Raf
- IC50 [4]: 0.48 ± 0.005 µM
- concentration needed to inhibit BCR-ABL in in vitro kinase assays [5]: 45 µM
- IC50 ([5]; in vitro kinase assay): > 45 µM
- IC50 [6]: > 45 µM
- IC50 [7]: > 45 µM
- IC50 [8]: > 45 µM
- IC50 [9]: > 45 µM
- IC50 [10]: 1.14 ± 0.11 µM
- p53 expression [11]: induce p53 expression
- IC50 ([12]; K562, 24 h): 3.72 µM
- IC50 ([12]; K562, 48 h): 3.48 µM
- cytotoxicity (in words) ([12]; K562, Wst-1): highly sensitive
- topoisomerase activity on addition to the in vitro DNA relaxation reaction [13]: inhibit the topoisomerase activity
- IC50 [14]: 3.26 µM
